What was measured:
Adenosine receptor A1 [1] = target: T1, Adenosine receptor A1 (Rattus norvegicus, UniProt P25099)
T1 sequence (P25099 whole entry): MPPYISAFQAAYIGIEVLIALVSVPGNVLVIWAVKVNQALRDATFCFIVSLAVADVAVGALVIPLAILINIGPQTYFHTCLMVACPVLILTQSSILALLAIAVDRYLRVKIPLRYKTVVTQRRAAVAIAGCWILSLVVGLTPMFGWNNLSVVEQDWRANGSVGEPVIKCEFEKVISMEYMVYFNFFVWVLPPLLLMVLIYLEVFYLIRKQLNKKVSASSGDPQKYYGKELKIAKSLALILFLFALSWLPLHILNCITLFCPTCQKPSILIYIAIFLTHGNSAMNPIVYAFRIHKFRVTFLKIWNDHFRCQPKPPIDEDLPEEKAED
Description: Ability to displace radioligand [3H]- DPCPX from adenosine A1 receptor on rat cortical membrane in the absence of GTP

Adenosine receptor A3 = target: T2, Adenosine receptor A3 (Homo sapiens, UniProt P0DMS8); assay: Ability to displace radioligand [125I]AB-MECA from membrane of HEK 293 cells stably transfected with human adenosine A3 receptor cDNA; assay type: cell membranes, HEK293
T2 sequence (P0DMS8 whole entry): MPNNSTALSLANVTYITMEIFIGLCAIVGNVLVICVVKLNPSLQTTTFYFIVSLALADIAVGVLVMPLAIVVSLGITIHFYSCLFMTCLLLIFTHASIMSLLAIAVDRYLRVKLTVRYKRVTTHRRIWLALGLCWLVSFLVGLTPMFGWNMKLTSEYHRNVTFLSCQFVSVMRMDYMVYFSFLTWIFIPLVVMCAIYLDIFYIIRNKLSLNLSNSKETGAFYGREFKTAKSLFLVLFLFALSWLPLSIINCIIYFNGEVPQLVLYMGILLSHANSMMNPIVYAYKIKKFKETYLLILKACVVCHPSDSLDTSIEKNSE

Adenosine receptor A1 [2] = target: T1, Adenosine receptor A1; assay: Ability to displace radioligand [3H]- DPCPX from adenosine A1 receptor on rat cortical membrane in the presence of 1 mM of GTP
[3] = GTP shift was determined
Adenosine receptor A2a = Adenosine receptor A2a (Rattus norvegicus, UniProt P30543)
Adenosine receptor A2b = target: T3, Adenosine receptor A2b (Homo sapiens, UniProt P29275); assay: Effective concentration for cAMP production in CHO-KI cells stably transfected with human adenosine A2B receptor cDNA
T3 sequence (P29275 whole entry): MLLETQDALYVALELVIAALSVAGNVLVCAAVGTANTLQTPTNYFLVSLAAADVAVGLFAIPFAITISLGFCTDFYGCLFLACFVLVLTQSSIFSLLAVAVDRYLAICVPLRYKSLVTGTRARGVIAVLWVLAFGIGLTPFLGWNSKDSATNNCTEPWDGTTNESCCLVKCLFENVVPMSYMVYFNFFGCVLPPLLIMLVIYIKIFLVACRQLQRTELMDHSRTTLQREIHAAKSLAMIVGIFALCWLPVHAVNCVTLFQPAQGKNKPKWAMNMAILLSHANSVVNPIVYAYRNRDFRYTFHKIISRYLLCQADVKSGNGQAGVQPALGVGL

[4] = target: T4, Adenosine receptor A2b (Homo sapiens) (UniProt P29275); assay: Effective concentration for cAMP production in CHO-KI cells expressing human adenosine A2B receptor at 100 uM; assay type: functional, cell-based
T4 sequence (whole entry): T3 sequence (P29275 whole entry)

Chain of Adenosine receptor A2a (P30543 whole entry): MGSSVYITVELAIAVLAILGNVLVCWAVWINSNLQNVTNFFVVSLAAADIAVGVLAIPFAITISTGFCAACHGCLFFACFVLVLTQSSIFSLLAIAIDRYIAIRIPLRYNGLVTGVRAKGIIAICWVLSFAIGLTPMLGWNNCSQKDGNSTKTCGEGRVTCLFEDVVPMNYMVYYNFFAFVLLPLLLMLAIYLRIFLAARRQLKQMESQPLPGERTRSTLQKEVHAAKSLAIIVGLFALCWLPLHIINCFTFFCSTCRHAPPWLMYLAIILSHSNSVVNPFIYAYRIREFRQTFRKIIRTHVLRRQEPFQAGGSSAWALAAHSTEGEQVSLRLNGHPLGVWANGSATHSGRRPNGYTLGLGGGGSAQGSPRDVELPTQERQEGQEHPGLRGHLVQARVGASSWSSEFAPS

| SMILES | Ki (Adenosine receptor A1 [1]) [nM] | Ki (Adenosine receptor A3) [nM] | Ki (Adenosine receptor A1 [2]) [nM] | GTP shift [3] | Ki (Adenosine receptor A2a) [nM] | EC50 (Adenosine receptor A2b) [nM] | Emax [4] [%] |
| --- | --- | --- | --- | --- | --- | --- | --- |
| Nc1ncnc2c1ncn2[C@@H]1O[C@H](C(=O)NC2CC2)[C@@H](O)[C@H]1O | – | 108 | – | – | – | 5300 | – |
| Nc1ncnc2c1ncn2[C@@H]1O[C@H](C(=O)NC2CCCC2)[C@@H](O)[C@H]1O | 770 | 32 | 4900 | 6.4 | 610 | 54000 | – |
| Nc1ncnc2c1ncn2[C@@H]1O[C@H](C(=O)NC2CCC2)[C@@H](O)[C@H]1O | – | 23 | – | – | 49 | 33000 | – |
| CNC(=O)[C@H]1O[C@@H](n2cnc3c(NCc4cccc(I)c4)ncnc32)[C@H](O)[C@@H]1O [IB-MECA] | – | – | – | – | – | 11000 | – |
| Nc1ncnc2c1ncn2[C@@H]1O[C@H](C(=O)NCCCl)[C@@H](O)[C@H]1O | 248 | 322 | 890 | 3.6 | 410 | 32000 | – |
| CC(C)(C)NC(=O)[C@H]1O[C@@H](n2cnc3c(N)ncnc32)[C@H](O)[C@@H]1O | 2730 | 8500 | 6950 | 2.6 | 1340 | – | 10 |

The next lines start with the values.

| Ki (Adenosine receptor A1 [1]) [nM] | Ki (Adenosine receptor A3) [nM] | Ki (Adenosine receptor A1 [2]) [nM] | GTP shift [3] | Ki (Adenosine receptor A2a) [nM] | EC50 (Adenosine receptor A2b) [nM] | Emax [4] [%] | SMILES |
| --- | --- | --- | --- | --- | --- | --- | --- |
| 141 | 569 | 478 | 3.4 | 130 | 16000 | – | CCNC(=S)[C@H]1O[C@@H](n2cnc3c(N)ncnc32)[C@H](O)[C@@H]1O |
| 1080 | 6.4 | 6840 | – | – | 45000 | – | CNC(=O)[C@H]1O[C@@H](n2cnc3c(N)ncnc32)[C@H](O)[C@@H]1O |
| 137 | 2280 | 459 | 3.4 | 130 | 13000 | – | Nc1ncnc2c1ncn2[C@@H]1O[C@H](C(=S)NC2CC2)[C@@H](O)[C@H]1O |
| 1620 | 85.3 | 1960 | 2.4 | 623 | 45000 | – | CONC(=O)[C@H]1O[C@@H](n2cnc3c(N)ncnc32)[C@H](O)[C@@H]1O |
| 257 | 211 | 804 | 3.1 | 160 | 37000 | – | CC(C)NC(=O)[C@H]1OC(n2cnc3c(N)ncnc32)[C@H](O)[C@@H]1O (some centres not stated) |
